Consider seven molecules from US8106065B2, “Antitussive agent” (Toray Industries, Inc., priority 2005, dated 2012).

Structures can show the parent of a compound that is named as a salt.

This test has as its system coughing induced by citric acid. In words: Effect on guinea pig coughing models induced by citric acid. It is filed as in vivo. The conditions noted are these: s.c.; for effects for suppressing coughs in comparison to the cough number of the pathosis-induced group: Example 3, 0.1 mg/kg, p<0.05 t-Test; for antitussive effect (number of coughs): Comparative Example 1. The source says: The fact that the morphinan derivatives having the nitrogen-containing cyclic substituent, represented by Formula (I) and the pharmaceutically acceptable acid addition salts thereof are effective for the therapy of coughing may be confirmed by showing inhibitory action against coughing of a guinea pig, which coughing has been induced by administering citric acid to the guinea pig. The inhibitory action against the coughing induced by citric acid administration may be confirmed by the method described in the Examples, but the method is not restricted thereto.
A solution of test substance, a solution of positive control substance (codeine phosphate) or the administration solvent was subcutaneously administered to 6 week-old Hartley guinea pigs at a volume of 0.1 mL/100 g. After leaving the guinea pigs to stand for 25 minutes, they were retained in acrylic chambers for cough detection and the chambers were set to a measurement equipment. Thirty minutes after the subcutaneous administration of the test substance, the nebulizer was turned on and 100 mM citric acid solution, a cough inducer, was atomized and sprayed to the face of each guinea pig for a period of 15 minutes (velocity: 50 mm/min). A minipolygraph was used for recording, and the respiratory waveform within the period of 15 minutes was recorded. A signal when a large and acute change of flow rate compared to the respiratory waveform occurred independently was considered as a cough, and marked on the recording sheet. The marking was conducted while recording the respiratory waveform. When a large and continuous amplitude arose by struggling, the amplitude was distinguished by noting that it was caused by struggling. Since some coughings cause just before, and/or between struggling, the recording sheet and the motion of the guinea pig were observed as simultaneously as possible.

Consider `O=C1c2ccccc2CN1[C@@H]1CC[C@@]2(O)[C@H]3Cc4ccc(O)c5c4[C@@]2(CCN3CC2CC2)[C@H]1O5` [Compound 4, 2-(7-cyclopropylmethyl-4,5α-epoxy-3,14-dihydroxy-morphinan-6β-yl)-2,3-dihydro-isoindol-1-one-tartaric acid salt], for which the “effects for suppressing coughs in comparison to the cough number of the pathosis-induced group” value (from here on “effects for suppressing coughs”) (n=3) is about 25%.

Consider `O=C1C=CC(=O)N1[C@@H]1CC[C@@]2(O)[C@H]3Cc4ccc(O)c5c4[C@@]2(CCN3CC2CC2)[C@H]1O5` [Compound 6, N-(17-cyclopropylmethyl-4,5α-epoxy-3,14-dihydroxy-morphinan-6β-yl)-maleimide-tartaric acid salt], for which, where the note is “1 mg/kg”, the “antitussive effect (number of coughs)” value is on record as “no antitussive effect was observed”. With `COc1ccc2c3c1O[C@H]1[C@@H](O)C=C[C@H]4[C@@H](C2)N(C)CC[C@@]341` [codeine phosphate, reference compound], the “effect for suppressing coughs” value is “approximately 51%” (Example 1, 10 mg/kg, 100 mM citric acid spray 30 min after dosing, vs pathosis-induced group, p<0.05, n=7) and “approximately 37%” (Example 2, 10 mg/kg, p<0.05 Welch-Test, n=3). Turning to `O=C1c2ccccc2S(=O)(=O)N1[C@@H]1CC[C@@]2(O)[C@H]3Cc4ccc(O)c5c4[C@@]2(CCN3CC2CC2)[C@H]1O5` [Compound 5, N-(17-cyclopropylmethyl-4,5α-epoxy-3,14-dihydroxy-morphinan-6β-yl)-O-sulfonbenzoic acid imide-tartaric acid salt], the “effects for suppressing coughs” value (n=3) is on record as about 28%. In the case of `O=C1C2=C(CCCC2)C(=O)N1[C@@H]1CC[C@@]2(O)[C@H]3Cc4ccc(O)c5c4[C@@]2(CCN3CC2CC2)[C@H]1O5` [Compound 3, N-(17-cyclopropylmethyl-4,5α-epoxy-3,14-dihydroxy-morphinan-6β-yl)-3,4,5,6-tetrahydrophthalimide.tartaric acid salt], under “n=3”, the “effects for suppressing coughs” value is reported as “approximately 29%”. Regarding `O=C1c2ccccc2C(=O)N1[C@@H]1CC[C@@]2(O)[C@H]3Cc4ccc(O)c5c4[C@@]2(CCN3CC2CC2)[C@H]1O5` [Compound 1, N-(17-cyclopropylmethyl-4,5α-epoxy-3,14-dihydroxy-morphinan-6β-yl)-phthalimide], the “effect for suppressing coughs in comparison to the cough number of the pathosis-induced group” value reads like this: (Example 1, 1 mg/kg, 100 mM citric acid spray 30 min after dosing, p<0.01, n=7) “approximately 94%”; (Example 2, 0.003 mg/kg, p<0.025 1 tailed-Shirley-Williams-Test, n=3) “approximately 50%”. For `Oc1ccc2c3c1O[C@H]1[C@H](N4CCCC4)CC[C@@]4(O)[C@@H](C2)N(CC2CC2)CC[C@]314` [Compound 2, 17-cyclopropylmethyl-4,5α-epoxy-6β-(pyrrolidine-1-yl)-morphinan-3,14-diol.tartaric acid salt], the “antitussive effect (number of coughs)” value (10 mg/kg) is listed as “no antitussive effect was observed”.
